Several values for one entry are separate records, joined by “and”; a condition that tells them apart may be missing. Equal entries are not always repeated.
Columns and labels:
MCF-10A cells [1] = assay: IncuCyte cell proliferation in nonmalignant cells; format: cell-based; settings: MCF-10A breast epithelial cells
Procedure: (§1) IncuCyte Analyzer-real time measurement of cell proliferation. The cell proliferation was measured using a label-free, noninvasive cellular confluence assay by IncuCyte Live-Cell Imaging Systems (Essen Bioscience, Ann Arbor, Mich., USA; IncuCyte FLR). This system enables collection of live cell images at 2 h intervals over several days. The IncuCyte Analyzer provides real-time cellular confluence data based on segmentation of high-definition phase-contrast images. The cell proliferation is expressed as an increase in percentage of cell confluence.

HaCaT cells = assay: IncuCyte cell proliferation in nonmalignant cells; format: cell-based; settings: HaCaT keratinocytes
Procedure: as §1

MiaPaCa-2 cells [2] = assay: Clonogenic assay (colony formation, survival fraction); format: cell-based, human; settings: for colony formation: 24 h; for IC50: Homo sapiens, MIA PaCa-2, 24 h, read-out: IC50, colony formation / survival fraction
Procedure: Clonogenic assay. […] The plates were kept within the incubator and media changed every 3-4 days until the control cells formed sufficiently large clones. The cell survival fractions were calculated as previously described.

MiaPaCa-2 cells [3] = assay: IncuCyte real-time cell proliferation (cell confluence); format: cell-based, human
Procedure: Cell proliferation was measured using a label-free, non-invasive cellular confluence assay employing the IncuCyte™ Live-Cell Imaging Analyzer (Essen Bioscience). This system provides real-time cellular confluence data based on segmentation of high definition phase contrast images. MiaPaCa2 (1,000 cells/well) were seeded overnight on a 96-well plate, placed in an XL-3 incubation chamber maintained at 37 C. and cells photographed and confluence calculated every 2 hr by IncuCyte software. MiaPaCa2 cells were treated with Met (1 and 2 mM) or Mito-Met-C10 (1-2 μM).
as §1

MiaPaCa-2 cells [4] = assay: Radiosensitization (X-radiation, clonogenic survival); format: cell-based, human; settings: for PDAC radiosensitivity: 24 h pretreatment before X-radiation
Procedure: MiaPaCa2 cells (1000 cells/well) were cultured in quadruplicate overnight in 96-well plates and changed to fresh medium.
(§2) Radiation experiments. […] The cells were then treated with X-radiation at a dose of 0, 2, 4, and 6 Gy. The control cells were treated with the same concentration of vehicle (0.1% DMSO) where appropriate. After irradiation, cells were suspended and seeded at various densities (100-8,000 cells per well) in 6-well plates for clonogenic assay as described above. The plates were kept within the incubator and media changed every 3-4 days for 2 weeks. Wells with 10-50 sufficiently large clones were chosen for calculating the cell survival fractions.

mitochondrial complex I [5] = target: T1, mitochondrial complex I (Homo sapiens, UniProt O75251+O75306+P03886); assay: Complex I oxygen consumption (pyruvate/malate-driven OCR) in permeabilized cells, Seahorse XF96; format: cell-based; design: IC50, complex I oxygen consumption; other: permeabilized MiaPaCa-2, added acutely; settings: permeabilized MiaPaCa-2, added acutely
Procedure: (§3) Respiratory enzyme activity in intact and permeabilized cells. The mitochondrial function in intact and permeabilized pancreatic cancer cells was measured using a Seahorse XF96 Extracellular Flux Analyzer (Seahorse Bioscience, North Billerica, Mass., USA). Unless specified otherwise, assays in intact cells were performed as previously described. Measurement of mitochondrial respiratory complexes in permeabilized cells was performed according to the manufacturer's instructions (Seahorse Bioscience). Briefly, intact cells were permeabilized using 1 nM Plasma Membrane Permeabilizer (PMP, Seahorse Bioscience) immediately before oxygen consumption rate (OCR) measurement by XF96. The oxygen consumption derived from mitochondrial complex I or complex II activity was measured by providing different substrates to mitochondria, e.g., pyruvate/malate for complex I and succinate for complex II activity. Rotenone, malonate and antimycin A were used as specific inhibitors of mitochondrial complex I, II and III activities, respectively.
(§4) The oxygen consumption rate was measured using the permeabilized MiaPaCa-2 cells in MAS buffer supplemented with pyruvate. The use of permeabilized cells avoids differences in cellular uptake of compounds. […] We tested the effect of pretreating cells with Mito-Met10 or Met using the permeabilized model. […]
Target sequence in this assay (P03886 whole entry): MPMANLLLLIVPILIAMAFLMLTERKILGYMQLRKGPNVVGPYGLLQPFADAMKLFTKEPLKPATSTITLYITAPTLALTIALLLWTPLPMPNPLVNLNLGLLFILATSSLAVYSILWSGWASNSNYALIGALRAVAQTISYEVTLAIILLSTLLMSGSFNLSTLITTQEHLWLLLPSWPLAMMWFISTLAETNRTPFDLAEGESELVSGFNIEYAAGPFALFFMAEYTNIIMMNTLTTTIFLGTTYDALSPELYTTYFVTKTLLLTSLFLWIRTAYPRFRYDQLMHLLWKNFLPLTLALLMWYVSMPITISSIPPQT
Target sequence in this assay (O75251 39-213): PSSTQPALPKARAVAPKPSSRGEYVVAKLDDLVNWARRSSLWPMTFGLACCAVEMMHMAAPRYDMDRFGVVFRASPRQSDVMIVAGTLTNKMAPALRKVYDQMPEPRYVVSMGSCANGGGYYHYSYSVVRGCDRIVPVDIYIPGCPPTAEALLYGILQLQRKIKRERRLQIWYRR
Target sequence in this assay (O75306 34-463): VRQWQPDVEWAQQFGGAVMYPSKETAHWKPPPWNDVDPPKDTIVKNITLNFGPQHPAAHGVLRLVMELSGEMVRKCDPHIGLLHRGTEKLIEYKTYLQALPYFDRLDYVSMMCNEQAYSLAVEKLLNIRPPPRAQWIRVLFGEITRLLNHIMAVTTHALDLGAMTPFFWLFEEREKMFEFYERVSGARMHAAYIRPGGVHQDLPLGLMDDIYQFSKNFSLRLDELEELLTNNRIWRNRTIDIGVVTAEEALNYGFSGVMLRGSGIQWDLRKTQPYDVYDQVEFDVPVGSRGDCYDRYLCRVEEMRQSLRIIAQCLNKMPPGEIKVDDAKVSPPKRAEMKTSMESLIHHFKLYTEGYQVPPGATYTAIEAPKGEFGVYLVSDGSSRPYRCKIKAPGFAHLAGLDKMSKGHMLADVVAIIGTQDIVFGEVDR

MiaPaCa-2 cells [6] = assay: Oxygen consumption rate in intact cells, Seahorse XF96; format: cell-based, human; settings: for concentration that inhibited OCR: intact MiaPaCa-2, after 24 h treatment and washout; for OCR inhibition: immediately after addition
Procedure: as §3
Effects of Met and Mito-Met analogs on mitochondrial bioenergetics in MiaPaCa-2 cells. The oxygen consumption rate (OCR) and the extracellular acidification rate (ECAR) were measured as a readout of mitochondrial function and glycolysis using a Seahorse Bioscience XF96 extracellular flux analyzer. We compared the immediate OCR changes in response to different concentrations (e.g., IC50 or higher values determined by clonogenic assay) of Met, Mito-Met2, Mito-Met6, Mito-Met10, and phenformin (FIG. 13A).

[7] = system: MiaPaCa-2 cell 3D spheroids; assay: Three-dimensional spheroid growth in Matrigel; format: cell-based, human; settings: 0.5 μM, compared to Met 10,000 μM
Procedure: Three-dimensional spheroid cell cultures of PDAC. MiaPaCa-2 cells (5,000) were seeded in 96-well plates containing Matrigel (Corning), used as scaffold. This typical 3D-cell culture system allows spheroids to form within the matrix. […] At days 3, 7, and 14 the wells were observed by bright-field microscopy and images acquired on a Nikon Eclipse Ti inverted microscope (Nikon instrument Inc., NY, USA). Spheroid-forming cells were counted using the Nikon NIS Elements imaging software (Nikon). Data are expressed as mean and SD of number of spheroids.

[8] = mouse
Procedure: In an initial proof-of-concept experiment, syngeneic KPC cells expressing Firefly luciferase (FC1242-luc) were orthotopically implanted to the pancreas of C57BL/6 mice and tumor growth monitored using bioluminescence imaging (FIG. 15F). Mice orthotopically autografted with FC1242-luc cells were treated daily with 1 mg/kg or 150 mg/kg Met, or 1 mg/kg Mito-Met. […] Serum from these animals was collected, and hepatic and kidney toxicity tested using standard AST, ALT, AP, and BUN assays, respectively.

[9] = Tissue accumulation in FC1242-luc orthotopic mice; format: in vivo; settings: 1 mg/kg daily for 2 weeks, tissues harvested 3 days after last treatment
Procedure: FIG. 19. Tissue accumulation of Mito-Met in in vivo FC1242-luc orthotopic mouse model. FC1242-luc orthotopic mice treated with Mito-Met10 (1 mg/kg) daily for 2 weeks. Tissue harvesting and extractions were performed 3 days after the last treatment. Quantitative data on concentrations of Mito-Met after normalization to tissue wet weight are represented as mean±SD, n=5.

MiaPaCa-2 cells [10] = assay: Sytox Green cytotoxicity assay; format: cell-based; settings: MiaPaCa-2, 24 h, 100 μM
Procedure: Cytotoxicity assay. To determine the cytotoxicity of Mito-Met analogs and other TPP^+-conjugated to a long chain aliphatic hydrocarbon, we used the Sytox assay as described previously. MiaPaCa-2 cells were treated for 24 h, and dead cells were monitored in the presence of 200 nM Sytox Green (Invitrogen). The Sytox method labels the nuclei of dead cells yielding green fluorescence. Fluorescence intensities from the dead cells in 96-well plate were acquired in real time every 15 min after 4 h using a plate reader (BMG Labtech, Inc.) equipped with an atmosphere controller set at 37° C. and 5% CO2:95% air, using a fluorescence detection with 485 nm (excitation) and 535 nm (emission). To measure the total cell number, all of the samples in each treatment group were permeabilized by adding Triton X 100 (0.065%) in the presence of Sytox Green for 3 h, and maximal fluorescence intensities were taken as 100%. Data are represented as a percentage of dead cells after normalization to total cell number for each group.

mitochondrial complex I [11] = target: T1, mitochondrial complex I; assay: Complex I oxygen consumption (pyruvate/malate-driven OCR) in permeabilized cells, Seahorse XF96; format: cell-based; settings: 24 h treatment, then permeabilized
Procedure: as §3, §4
Target sequence in this assay (O75251 39-213): as the sequence (O75251 39-213) above
Target sequence in this assay (O75306 34-463): as the sequence (O75306 34-463) above
Target sequence in this assay (P03886 whole entry): as the sequence (P03886 whole entry) above

FC1242-luc autografts = assay: Orthotopic syngeneic FC1242-luc tumor growth, bioluminescence imaging and calipers; format: in vivo, C57BL/6 mice; settings: for in vivo tumor growth relative to Met: 1 mg/kg daily, intraperitoneal
Description: In vivo studies and bioluminescence imaging.

MiaPaCa-2 cells [12] = system: MiaPaCa-2 cells
Procedure: Cells were grown on 10 cm dishes and treated with the compounds for 24 h in full media.
Next we investigated the relative uptake of different Mito-Met analogs (Mito-Met2, Mito-Met6, and Mito-Met10) and phenformin in MiaPaCa-2 cells (FIG. 12D). Cells were treated with respective Mito-Met analog (1 μM) for 1 h. Cells were lysed after washing and analyzed for Mito-Met analog by LC-MS.

AMPK = AMPK activation immunoblot (phospho-Thr-172 / total AMPK); format: cell-based, human; settings: MiaPaCa-2
Procedure: In this example, the inventors have shown that the mito-met compounds of the present invention cause an increased AMPK activation in cancer cells. In preliminary experiments (FIG. 4), human MiaPaCa2 and murine FC1199 PDAC cells treated 30 min with 1 μM mito-met (MM), 1 mM Met, or the oligomycin positive control were lysed, and proteins size-separated on SDS-PAGE, transferred to PVDF, and probed with an antibody to phosphorylated AMPK Thr-172.
Immunoblotting. MiaPaCa-2 PDAC cells (1×10^6) were plated to 80% confluency in 60 mm dishes and then serum-starved for 5 hours. […] Cells were stimulated with oligomycin as a positive control. After stimulation, cells were washed twice in cold PBS and lysed using a modified RIPA buffer. Lysates were normalized for protein concentration, size separated using reducing SDS-PAGE, electro-transferred to PVDF membranes (Millipore) and then probed using primary and horseradish peroxidase-conjugated secondary antibodies. Antibodies against total or phosphorylated 5′ AMP-activated protein kinase (AMPK) were purchased from Cell Signaling Technology (Danvers, Mass.) and used at the manufacturer's recommended dilutions. Proteins were visualized by chemiluminescence with auto-exposure and quantified by densitometric analysis using the FluorChem HD2 from Cell Biosciences (Santa Clara, Calif.).

MCF-10A cells [13] = assay: Radiosensitization (X-radiation, clonogenic survival) in normal cells; format: cell-based; settings: 1 μM pretreatment
Procedure: as §2

[14] = intact MiaPaCa-2, immediately after addition

## CN(C)C(=N)N=C(N)N [Metformin]
MCF-10A cells [1]
  cell proliferation (confluence) of nonmalignant cells: not significantly affected
HaCaT cells
  cell proliferation (confluence) of nonmalignant cells: not significantly affected
MiaPaCa-2 cells [2]; 3 mM
  colony formation: Almost no colony formation
MiaPaCa-2 cells [2]
  IC50: 1300 µM
MiaPaCa-2 cells [3]; Homo sapiens, MIA PaCa-2, 1,000 μM, read-out: inhibition of cell growth
  inhibition at 1000 µM: 80%
MiaPaCa-2 cells [4]; 1 mM
  PDAC radiosensitivity: increased radio-sensitization
MiaPaCa-2 cells [4]; 1 mM, listed as Met
  PDAC radiosensitivity: increased radiosensitization
Mitochondrial complex I [5]
  concentration that inhibited OCR: 3,000 μM
MiaPaCa-2 cells [6]; [14]
  concentration that dose-dependently decreased oxygen consumption: 1 to 10 mM

## N=C(N)NC(=N)NCC[P+](c1ccccc1)(c1ccccc1)c1ccccc1.[Br-] [Mito-Met2]
MiaPaCa-2 cells [6]
  concentration that inhibited OCR: 25 µM

## N=C(N)NC(=N)NCCCCCCCCCC[P+](c1ccccc1)(c1ccccc1)c1ccccc1.[Br-] [Mito-Met10]
MCF-10A cells [1]
  cell proliferation (confluence) of nonmalignant cells: not significantly affected
HaCaT cells
  cell proliferation (confluence) of nonmalignant cells: not significantly affected
[7]
  spheroid growth: potently inhibited
MiaPaCa-2 cells [2]; 3 μM
  colony formation: Almost no colony formation
MiaPaCa-2 cells [2]
  IC50: 1.1 µM
MiaPaCa-2 cells [2]; clonogenic, 24 h treatment (FIG. 5)
  fold more effective than metformin in inhibiting MiaPaCa-2 cell proliferation: ~1,000 fold
MiaPaCa-2 cells [3]
  fold more effective than Met in inhibiting PDAC proliferation: ~1,000 fold and > 1,000 fold
MiaPaCa-2 cells [3]; Homo sapiens, MIA PaCa-2, 0.2 μM, read-out: inhibition of cell growth
  inhibition at 0.2 µM: 70%
MiaPaCa-2 cells [3]; Homo sapiens, MIA PaCa-2, 1 μM, read-out: inhibition of cell growth
  inhibition at 1 µM: > 90%
MiaPaCa-2 cells [3]; Homo sapiens, MIA PaCa-2, MiaPaCa-2, read-out: IC50 (FIG. 12B, cell confluence)
  IC50: 0.84 µM
[8]
  toxicity in vivo (hepatic and kidney): neither Met nor the mitochondria-targeted analog Mito-Met elicited toxicity in vivo
[9]
  tissue accumulation: increased accumulation of this compound in liver, kidney, spleen, and tumor
MiaPaCa-2 cells [10]
  cell death (Sytox Green): no detectable cell death
Mitochondrial complex I [11]
  concentration giving significant decrease in OCR (complex I inhibition): 0.75 µM
FC1242-luc autografts
  in vivo tumor growth relative to Met: considerably more potent than Met
FC1242-luc autografts; listed as Mito-Met
  in vivo tumor growth relative to Met: considerably more effective than Met
FC1242-luc autografts; in vivo experiments
  therapeutic index, fold greater than Met: ~1,000 fold
MiaPaCa-2 cells [12]; LC-MS (FIG. 14C)
  difference in intracellular uptake and retention, MiaPaCa-2 and MCF-10A cells: four-fold
MiaPaCa-2 cells [12]; MiaPaCa-2, 1 μM, 1 h
  cellular uptake, fold higher than phenformin: ~100 fold
AMPK
  AMPK activation, fold more potent / lower concentration than metformin: ~1,000 fold
MiaPaCa-2 cells [4]; 1 μM versus Met 1 mM
  fold lower concentration than Met for enhancement of radiation sensitivity: 1,000 fold
MiaPaCa-2 cells [4]; 1 μM
  PDAC radiosensitivity: as effective as 1 mM Met
Mitochondrial complex I [5]
  concentration that inhibited OCR: 10 µM
MCF-10A cells [13]
  radiosensitivity in normal cells: no radiosensitivity was observed
MiaPaCa-2 cells [6]; 1 μM
  OCR inhibition: did not inhibit OCR
MiaPaCa-2 cells [6]
  concentration that inhibited OCR: 1 µM
MiaPaCa-2 cells [6]; ≈10 μM
  OCR inhibition: slight inhibition

## COC1=C(OC)C(=O)C(CCCCCCCCCC[P+](c2ccccc2)(c2ccccc2)c2ccccc2)=C(C)C1=O [Mito-Q]
MiaPaCa-2 cells [10]
  cell death (Sytox Green): considerably more cytotoxic

## CC1(C)CC(OCCCCC[P+](c2ccccc2)(c2ccccc2)c2ccccc2)CC(C)(C)N1[O].[Br-] [Mito-Tempol]
MiaPaCa-2 cells [10]
  cell death (Sytox Green): considerably more cytotoxic

## [H]/N=C(/N)N/C(=N/[H])NCCc1ccccc1 [Phenformin, reference compound]
MiaPaCa-2 cells [6]; [14]
  concentration inhibiting OCR to the same extent as Met: ten-fold lower concentration
